Results reported in patent US11155557B2, “Pyrazolopyrimidine compounds and methods of use thereof” (Genentech, Inc., priority 2016, dated 2021).
Where two headings read alike, the source gives them in different places.

How the values were obtained:
[1] = tested on: JAK1-dependent STAT6 phosphorylation in BEAS-2B human bronchial epithelial cells; test: JAK1 pathway assay: IL-13 stimulated STAT6 phosphorylation in BEAS-2B cells; assay type: cell-based; details: Homo sapiens, BEAS-2B, read-out: IL-13 p-STAT6 BEAS-2B IC50
Method in brief: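 BEAS-2B bronchial epithelial cells plated one day before, run in complete growth medium. Phospho-STAT6 in lysates measured by MesoScale Discovery; EC50 reported.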

[2] = target: isolated recombinant JAK2 kinase domain (Homo sapiens (Human), UniProt O60674); test: JAK2 enzyme assay (Caliper LabChip, Ki)
[3] = target: isolated recombinant JAK1 kinase domain (Homo sapiens (Human), UniProt P23458); test: JAK1 enzyme assay (Caliper LabChip, Ki); assay type: biochemical
Protocol: The activity of the isolated recombinant JAK1 and JAK2 kinase domain was measured by monitoring phosphorylation of a peptide derived from JAK3 ([…] fluorescently labeled on the N-terminus with 5-carboxyfluorescein) using the Caliper LabChip R technology (Caliper Life Sciences, Hopkinton, Mass.).

[4] = BEAS-2B cells, IL-13 stimulation

Sequence of isolated recombinant JAK2 kinase domain (O60674 849-1124): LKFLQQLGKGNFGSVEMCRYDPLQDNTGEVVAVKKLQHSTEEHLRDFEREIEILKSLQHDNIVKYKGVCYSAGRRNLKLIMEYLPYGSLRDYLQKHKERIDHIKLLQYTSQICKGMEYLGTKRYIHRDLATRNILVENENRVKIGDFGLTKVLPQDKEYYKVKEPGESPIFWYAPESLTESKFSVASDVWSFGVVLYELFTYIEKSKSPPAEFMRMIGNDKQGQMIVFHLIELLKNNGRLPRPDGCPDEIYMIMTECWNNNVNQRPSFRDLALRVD
Sequence of isolated recombinant JAK1 kinase domain (P23458 875-1153): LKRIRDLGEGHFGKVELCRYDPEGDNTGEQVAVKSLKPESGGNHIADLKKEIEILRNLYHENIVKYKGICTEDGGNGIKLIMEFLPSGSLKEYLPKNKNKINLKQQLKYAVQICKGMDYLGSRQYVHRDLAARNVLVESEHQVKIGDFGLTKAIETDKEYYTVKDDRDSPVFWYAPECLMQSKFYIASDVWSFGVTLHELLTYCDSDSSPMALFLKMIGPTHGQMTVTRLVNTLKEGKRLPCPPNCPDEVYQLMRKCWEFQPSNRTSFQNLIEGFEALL

Row | SMILES | IC50 [1] [nM] | Ki ([2]; read-out: JAK2 Ki) [nM] | Ki [3] [nM] | IC50 [1, 4] [nM] | Ki [2] [nM]
1 | NC(=O)c1cc2cc(OC(F)F)c(-c3nn(CC(=O)N4CCC(=O)CC4)cc3NC(=O)c3cnn4cccnc34)cc2s1 [Example 62, N-[3-[2-carbamoyl-5-(difluoromethoxy)benzothiophen-6-yl]-1-[2-oxo-2-(4-oxo-1-piperidyl)ethyl]pyrazol-4-yl]pyrazolo[1,5-a]pyrimidine-3-carboxamide] | > 333 | 0.24 | 0.38 |  | 
2 | CN(CCC#N)C1CCN(C(=O)Cn2cc(NC(=O)c3cnn4cccnc34)c(-c3cc4ccccc4cc3OC(F)F)n2)CC1 [Example 63, N-[1-[2-[4-[2-cyanoethyl(methyl)amino]-1-piperidyl]-2-oxo-ethyl]-3-[3-(difluoromethoxy)-2-naphthyl]pyrazol-4-yl]pyrazolo[1,5-a]pyrimidine-3-carboxamide] |  | 0.58 | 0.4 | 14 | 
3 | N#CC1(CNC2CCN(C(=O)Cn3cc(NC(=O)c4cnn5cccnc45)c(-c4cc5sc(C(N)=O)cc5cc4OC(F)F)n3)CC2)CC1 [Example 64, N-[3-[2-carbamoyl-5-(difluoromethoxy)benzothiophen-6-yl]-1-[2-[4-[(1-cyanocyclopropyl)methylamino]-1-piperidyl]-2-oxo-ethyl]pyrazol-4-yl]pyrazolo[1,5-a]pyrimidine-3-carboxamide] |  | 0.35 | 0.29 | > 1000 | 
4 | O=C(Nc1cn(CC(=O)N2CCC(CN3CCOCC3)CC2)nc1-c1cc2sccc2cc1OC(F)F)c1cnn2cccnc12 [Example 65, N-[3-[5-(difluoromethoxy)benzothiophen-6-yl]-1-[2-[4-(morpholinomethyl)-1-piperidyl]-2-oxo-ethyl]pyrazol-4-yl]pyrazolo[1,5-a]pyrimidine-3-carboxamide] |  | 0.6 | 0.41 | 13 | 
5 | O=C(Nc1cn(CC(=O)N2CCC(N3CCOCC3)CC2)nc1-c1cc2sccc2cc1OC(F)F)c1cnn2cccnc12 [Example 66, N-[3-[5-(difluoromethoxy)benzothiophen-6-yl]-1-[2-(4-morpholino-1-piperidyl)-2-oxo-ethyl]pyrazol-4-yl]pyrazolo[1,5-a]pyrimidine-3-carboxamide] |  | 0.49 | 0.3 | 21 | 
6 | CCN1CCN(C(=O)Cn2cc(NC(=O)c3cnn4cccnc34)c(-c3cc4ccccc4cc3OC(F)F)n2)CC1 [Example 67, N-[3-[3-(difluoromethoxy)-2-naphthyl]-1-[2-(4-ethylpiperazin-1-yl)-2-oxo-ethyl]pyrazol-4-yl]pyrazolo[1,5-a]pyrimidine-3-carboxamide] |  |  | 2.11 | 53 | 4.07
7 | O=CN1CCN(C(=O)Cn2cc(NC(=O)c3cnn4cccnc34)c(-c3cc4ccccc4cc3OC(F)F)n2)CC1 [Example 68, N-[3-[3-(difluoromethoxy)-2-naphthyl]-1-[2-(4-formylpiperazin-1-yl)-2-oxo-ethyl]pyrazol-4-yl]pyrazolo[1,5-a]pyrimidine-3-carboxamide] |  |  | 0.88 | 35 | 1.62
8 | CN(C)C(=O)CN1CCN(C(=O)Cn2cc(NC(=O)c3cnn4cccnc34)c(-c3cc4ccccc4cc3OC(F)F)n2)CC1 [Example 69, N-[3-[3-(difluoromethoxy)-2-naphthyl]-1-[2-[4-[2-(dimethylamino)-2-oxo-ethyl]piperazin-1-yl]-2-oxo-ethyl]pyrazol-4-yl]pyrazolo[1,5-a]pyrimidine-3-carboxamide] |  | 0.94 | 0.44 | 152 | 
9 | CC(C)(C)OC(=O)N1CCN(C(=O)Cn2cc(NC(=O)c3cnn4cccnc34)c(-c3cc4ccccc4cc3OC(F)F)n2)CC1 [Example 70, tert-butyl 4-[2-[3-[3-(difluoromethoxy)-2-naphthyl]-4-(pyrazolo[1,5-a]pyrimidine-3-carbonylamino)pyrazol-1-yl]acetyl]piperazine-1-carboxylate] |  | 1.16 | 0.35 | 25 | 
10 | O=C(Nc1cn(CC(=O)N2CCNCC2)nc1-c1cc2ccccc2cc1OC(F)F)c1cnn2cccnc12 [Example 71, N-[3-[3-(difluoromethoxy)-2-naphthyl]-1-(2-oxo-2-piperazin-1-yl-ethyl)pyrazol-4-yl]pyrazolo[1,5-a]pyrimidine-3-carboxamide] |  | 1.6 | 0.86 | 78 | 
11 | CN1CCC[C@@H]1Cn1cc(NC(=O)c2cnn3cccnc23)c(-c2cc3c(cc2OC(F)F)NCCS3)n1 [Example 72, N-[3-[6-(difluoromethoxy)-3,4-dihydro-2H-1,4-benzothiazin-7-yl]-1-[[(2R)-1-methylpyrrolidin-2-yl]methyl]pyrazol-4-yl]pyrazolo[1,5-a]pyrimidine-3-carboxamide] |  | 0.22 | 0.22 | 10 | 
12 | CN1CCC[C@@H]1Cn1cc(NC(=O)c2cnn3cccnc23)c(-c2cc3c(cc2OC(F)F)NC(=O)CS3)n1 [Example 73, N-[3-[6-(difluoromethoxy)-3-oxo-4H-1,4-benzothiazin-7-yl]-1-[[(2R)-1-methylpyrrolidin-2-yl]methyl]pyrazol-4-yl]pyrazolo[1,5-a]pyrimidine-3-carboxamide] |  | 0.19 | 0.2 | 9 | 
13 | CN1CCC[C@H]1Cn1cc(NC(=O)c2cnn3cccnc23)c(-c2cc3cn[nH]c3cc2OC(F)F)n1 [Example 76, N-[3-[6-(difluoromethoxy)-1H-indazol-5-yl]-1-[[(2S)-1-methylpyrrolidin-2-yl]methyl]pyrazol-4-yl]pyrazolo[1,5-a]pyrimidine-3-carboxamide] |  | 0.53 | 0.48 | 17 | 
14 | CN1CCC[C@@H]1Cn1cc(NC(=O)c2cnn3cccnc23)c(-c2cc3cn[nH]c3cc2OC(F)F)n1 [Example 77, N-[3-[6-(difluoromethoxy)-1H-indazol-5-yl]-1-[[(2R)-1-methylpyrrolidin-2-yl]methyl]pyrazol-4-yl]pyrazolo[1,5-a]pyrimidine-3-carboxamide] |  | 0.43 | 0.28 | 9 | 
15 | O=C(Nc1cn(CCN[C@@H]2CCOC2)nc1-c1cc2c(cc1OC(F)F)NCCS2)c1cnn2cccnc12 [Example 78, N-[3-[6-(difluoromethoxy)-3,4-dihydro-2H-1,4-benzothiazin-7-yl]-1-[2-[[(3R)-tetrahydrofuran-3-yl]amino]ethyl]pyrazol-4-yl]pyrazolo[1,5-a]pyrimidine-3-carboxamide] |  | 0.1 | 0.19 | 13 | 
16 | CNCCn1cc(NC(=O)c2cnn3cccnc23)c(-c2cc3c(cc2OC(F)F)NC(=O)CS3)n1 [Example 79, N-[3-[6-(difluoromethoxy)-3-oxo-4H-1,4-benzothiazin-7-yl]-1-[2-(methylamino)ethyl]pyrazol-4-yl]pyrazolo[1,5-a]pyrimidine-3-carboxamide] |  | 0.13 | 0.18 | 97 | 
17 | CNCCn1cc(NC(=O)c2cnn3cccnc23)c(-c2cc3c(cc2OC(F)F)NCCS3)n1 [Example 81, N-[3-[6-(difluoromethoxy)-3,4-dihydro-2H-1,4-benzothiazin-7-yl]-1-[2-(methylamino)ethyl]pyrazol-4-yl]pyrazolo[1,5-a]pyrimidine-3-carboxamide] |  | 0.11 | 0.12 | 7 | 
18 | CN(C)CCn1cc(NC(=O)c2cnn3cccnc23)c(-c2cc3c(cc2OC(F)F)NCCS3)n1 [Example 82, N-[3-[6-(difluoromethoxy)-3,4-dihydro-2H-1,4-benzothiazin-7-yl]-1-[2-(dimethylamino)ethyl]pyrazol-4-yl]pyrazolo[1,5-a]pyrimidine-3-carboxamide] |  | 0.16 | 0.23 | 7 | 
19 | CN(C)CCn1cc(NC(=O)c2cnn3cccnc23)c(-c2cc3c(cc2OC(F)F)NC(=O)CS3)n1 [Example 83, N-[3-[6-(difluoromethoxy)-3-oxo-4H-1,4-benzothiazin-7-yl]-1-[2-(dimethylamino)ethyl]pyrazol-4-yl]pyrazolo[1,5-a]pyrimidine-3-carboxamide] |  | 0.14 | 0.23 | 14 | 
20 | O=C(Nc1cn(C2COC2)nc1-c1cc2c(cc1OC(F)F)NCCO2)c1cnn2cccnc12 [Example 84, N-[3-[6-(difluoromethoxy)-3,4-dihydro-2H-1,4-benzoxazin-7-yl]-1-(oxetan-3-yl)pyrazol-4-yl]pyrazolo[1,5-a]pyrimidine-3-carboxamide] |  | 0.12 | 0.19 | 8 | 
21 | O=C(Nc1cn(CCN2CCOCC2)nc1-c1cc2ccccc2cc1OC(F)F)c1cnn2cccnc12 [Example 85, N-[3-[3-(difluoromethoxy)-2-naphthyl]-1-(2-morpholinoethyl)pyrazol-4-yl]pyrazolo[1,5-a]pyrimidine-3-carboxamide] |  | 1.69 | 1.32 | 34 | 
22 | CN1CCC(Cn2cc(NC(=O)c3cnn4cccnc34)c(-c3cc4ccccc4cc3OC(F)F)n2)CC1 [Example 86, N-[3-[3-(difluoromethoxy)-2-naphthyl]-1-[(1-methyl-4-piperidyl)methyl]pyrazol-4-yl]pyrazolo[1,5-a]pyrimidine-3-carboxamide] |  | 1.02 | 1.53 | 31 | 
23 | CCn1cc(NC(=O)c2cnn3cccnc23)c(-c2cc3ccccc3cc2OC(F)F)n1 [Example 87, N-[3-[3-(difluoromethoxy)-2-naphthyl]-1-ethyl-pyrazol-4-yl]pyrazolo[1,5-a]pyrimidine-3-carboxamide] |  | 0.42 | 0.62 | 15 | 
